What was measured:
[1] = target: T1, Human Trypsin (Homo sapiens, UniProt P07477); test: Inhibition of Trypsin by absorbance method (S-2222 substrate, 405 nm); format: biochemical; conditions: Inhibitory Effect of Compounds on Trypsin; 37 °C for 30 minutes
T1 construct: purchased Sigma T6424
Protocol: • Enzyme: Human Trypsin (Sigma, Cat. No. T6424) • Substrate: S-2222™ (CHROMOGENIX, Cat. No. 82031639) • Buffer: 0.1 M sodium phosphate; 0.2 M NaCl and 0.5% PEG 8000, pH 7.4
Test compounds dissolved in 100% DMSO at 10 mM were diluted with 100% DMSO to concentrations of 10000 µM, 3333 µM, 1111 µM, 370.4 µM, 123.5 µM, 41.2 µM, 13.7 µM, and 4.6 µM. Then, 29.4 µL of Trypsin enzyme solution (0.8 nM) was added to each well of a 384-well plate, with 29.4 µL of buffer added to blank wells instead. Then, 0.6 µL of compound at different concentrations was added; DMSO was used instead for blank and control wells. The plate was mixed using a plate shaker and incubated at 37 °C for 30 minutes.
Finally, 30 µL of substrate at a concentration of 40 µM was added to each well, and the absorbance was measured at 405 nm.
Table 5. Inhibitory Effect of Compounds on Trypsin

[2] = target: T2, α-Chymotrypsin (Homo sapiens, UniProt P17538); test: Inhibition of Chymotrypsin by absorbance method (S-2586 substrate, 405 nm); format: biochemical; conditions: Inhibitory Effect of Compounds on Chymotrypsin; 37 °C for 30 minutes
T2 construct: α-Chymotrypsin (Sigma, Cat. No. C8946); purchased Sigma C8946
Protocol: • Enzyme: α-Chymotrypsin (Sigma, Cat. No. C8946) • Substrate: S-2586™ (Boatman Biotech, Cat. No. B2586) • Buffer: 0.05 M HEPES; 0.145 M NaCl; 5 mM KCl and 0.1% PEG 8000, pH 7.4
Test compounds dissolved in 100% DMSO at 10 mM were diluted with 100% DMSO to concentrations of 100 µM, 33.33 µM, 11.11 µM, 3.704 µM, 1.235 µM, 0.412 µM, 0.137 µM, and 0.046 µM. Then 29.4 µL of Chymotrypsin enzyme solution (20 nM) was added to each well of a 384-well plate, with 29.4 µL of buffer added to blank wells instead. Then, 0.6 µL of compound at different concentrations was added; DMSO was used instead for blank and control wells. The plate was mixed using a plate shaker and incubated at 37 °C for 30 minutes.
Finally, 30 µL of substrate at a concentration of 200 µM was added to each well, and the absorbance was measured at 405 nm.
Table 4. Inhibitory Effect of Compounds on Chymotrypsin

[3] = target: T3, Human FIIa (Homo sapiens, UniProt P00734); test: Inhibition of coagulation factor FIIa by absorbance method (S-2366 substrate, 405 nm); format: biochemical; conditions: Inhibitory Effect of Compounds on Coagulation Factor FIIa; 37 °C for 30 minutes
T3 construct: Human FIIa (Enzyme Research Laboratories, Cat. No. HT 1002a); purchased Enzyme Research Laboratories HT 1002a
Protocol: Then 29.4 μL of FIIa enzyme solution (4 nM) was added to each well of a 384-well plate, with 29.4 μL of buffer added to blank wells instead. Then, 0.6 μL of compound at different concentrations was added; DMSO was used instead for blank and control wells. The plate was mixed using a plate shaker and incubated at 37 °C for 30 minutes. […] Table 6. Inhibitory Effect of Compounds on Coagulation Factor FIIa

[4] = target: Human Factor XIa (Homo sapiens, UniProt P03951); test: Inhibition of human coagulation Factor XIa by absorbance method (S-2366 substrate, 405 nm); format: biochemical; conditions: incubated at 37 °C for 20 minutes; substrate 800 µM; read-out: Recombinant Enzyme FXIa IC50
Protocol: • Enzyme: Human Factor XIa (ENZYME […], Cat. No. HFXIa 1111a) • Substrate: S-2366™ (CHROMOGENIX, Cat. No. 82109039) • Buffer: 145 mM NaCl, 5 mM KCl, 1 mg/mL PEG 8000, 30 mM HEPES, pH 7.4.
Test compounds dissolved in 100% DMSO at 10 mM were diluted with 100% DMSO to concentrations of 1000 µM, 200 µM, 40 µM, 8 µM, 1.6 µM, 0.32 µM, 0.064 µM, 0.0128 µM, 0.00256 µM, and […]. Then 98 µL of FXIa enzyme solution (77.7 ng/mL) was added to each well of a 96-well plate, with 98 µL of buffer added to blank wells instead. Then, 2 µL of compound at different concentrations was added; DMSO was used instead for blank and control wells. The plate was mixed using a plate shaker and incubated at 37 °C for 20 minutes.
Finally, 100 µL of substrate (800 µM) was added to each well, and the absorbance was measured at 405 nm.
Curve fitting was performed using GraphPad Prism software to calculate the IC50 values.

[5] = Pharmacokinetic experiment in rats (iv and PO); conditions: male, Sprague-Dawley (SD), rat, plasma, 5 mg/kg
Text: (§1) Polyethylene glycol 400 (PEG-400, Lot GORKREUT, Shaen Chemical Technology (Shanghai) Co., Ltd.), DMSO (Lot 20200319, Guangdong Guanghua Sci-Tech Co., Ltd.), normal saline (Lot C20052604, Jiangxi Kelun Pharmaceutical Co., Ltd.). LC-MS instrument (Thermo Fisher Ultimate 3000 UPLC, TSQ QUANTUM ULTRA triple quadrupole mass spectrometer, AB SCIEX 5500 QTARP).
(§2) SD rats: Male, 180-250 g, purchased from Guangdong Vital River Laboratory Animal Technology Co., Ltd.
(§3) The test compound powder was accurately weighed, completely dissolved in DMSO, then PEG-400 was added. The mixture was vortexed and sonicated to mix, followed by the addition of normal saline. The mixture was vortexed and sonicated again to achieve a final concentration of 0.5 mg/mL (DMSO:PEG-400:NS = 5:60:35, V/V/V). The dosing volume was 10 mL/kg for oral gavage and 0.5 mL/kg for intravenous administration.
(§4) After intravenous or oral administration to rats, 200 µL of venous blood was collected at 5 min (not collected for oral group), 15 min, 30 min, 1 h, 2 h, 5 h, 7 h, and 24 h into heparinized EP tubes. The blood was centrifuged at 12,000 rpm for 2 minutes, and the plasma was collected and stored at -80 °C until analysis.
(§5) A precise amount of the test compound was weighed and dissolved in DMSO to 1 mg/mL as a stock solution. An appropriate volume of the compound stock solution was accurately pipetted and diluted with acetonitrile to prepare standard series solutions. 20 µL of each standard series solution was accurately pipetted and added to 180 µL of blank plasma, vortexed to mix, to prepare plasma samples equivalent to plasma concentrations of 1 ng/mL, 3 ng/mL, 10 ng/mL, 30 ng/mL, 100 ng/mL, 300 ng/mL, 1000 ng/mL, 3000 ng/mL, and 5000 ng/mL. Each concentration was analyzed in duplicate to establish the standard curve. 20 µL of plasma sample was taken, and 200 µL of an internal standard (propranolol, 5 ng/mL) in acetonitrile solution was added. The mixture was vortexed and centrifuged at 4000 rpm for 5 minutes. The supernatant was taken for LC-MS analysis. The LC-MS detection conditions were as follows: Chromatographic Column: Waters ACQUITY™ PREMIER HSS T3, 50*2.1 mm, 1.8 µm.
(§6) Mobile phase A: water (0.1% formic acid), mobile phase B: acetonitrile, flow rate: 0.5 mL/min, gradient elution: see Table 2 below.
(§7) After determining the plasma drug concentration by LC-MS, the pharmacokinetic parameters following administration to rats were calculated using the non-compartmental model in WinNonlin 6.1 software.

[6] = test system: Pooled human plasma; test: In vitro anticoagulant effect in human plasma (aPTT, EC1.5x); format: biochemical; conditions: 37 °C for 10 minutes
Protocol: aPTT (Lot 220106600), Calcium Chloride (Lot 210305600), Needle Rinse Solution (Lot 211101300): produced by Shenzhen Mindray Bio-Medical Electronics Co., Ltd. Pooled human plasma: collected from healthy individuals using disposable venous blood collection tubes (Liuyang Sanli Medical Technology Development Co., Ltd., Lot 211108, sodium citrate 9:1). Blood was collected, centrifuged at room temperature at 3000 rpm for 10 minutes, and the supernatant was collected and stored for use (Lot 20220606).
Test compounds dissolved in 100% DMSO at 10 mM were diluted with 100% DMSO to concentrations of 0.29 µM, 0.59 µM, 1.17 µM, 2.34 µM, 4.69 µM, 9.38 µM, 18.75 µM, and 37.50 µM. Then 99 µL of pooled human plasma was added to each 1.5 mL centrifuge tube, followed by the addition of 1 µL of compound at different concentrations; 1 µL of DMSO was added to the blank control. The tubes were mixed by repeated manual inversion, centrifuged briefly using a mini centrifuge to collect the samples, and then incubated in a thermostatic water bath at 37 °C for 10 minutes with mixing. The aPTT was measured using a fully automated coagulation analyzer according to the preset program.
Curve fitting was performed using GraphPad Prism software to calculate EC1.5x.

[7] = in vivo; conditions: male, Sprague-Dawley (SD), rat
Text: as §1, §2, §3, §4, §5, §6, §7

T2 sequence (P17538 34-164 limits assumed, other chains not shown): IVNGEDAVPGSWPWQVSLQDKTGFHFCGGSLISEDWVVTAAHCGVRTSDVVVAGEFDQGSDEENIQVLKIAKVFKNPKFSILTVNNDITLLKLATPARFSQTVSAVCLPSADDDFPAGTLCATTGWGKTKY
T2 sequence (P17538 167-263 limits assumed, other chains not shown): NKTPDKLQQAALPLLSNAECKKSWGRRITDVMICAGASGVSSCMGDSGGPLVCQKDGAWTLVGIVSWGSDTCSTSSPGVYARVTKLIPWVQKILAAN
Sequence of Human Factor XIa (P03951 388-625 limits assumed): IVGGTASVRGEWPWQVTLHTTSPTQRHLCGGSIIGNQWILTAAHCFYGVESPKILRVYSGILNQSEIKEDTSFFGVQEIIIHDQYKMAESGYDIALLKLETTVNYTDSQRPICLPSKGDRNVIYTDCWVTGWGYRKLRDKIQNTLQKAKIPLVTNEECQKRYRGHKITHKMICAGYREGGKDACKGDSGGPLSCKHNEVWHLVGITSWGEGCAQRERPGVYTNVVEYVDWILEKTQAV
Sequence of Human Factor XIa (P03951 19-387 partner limits assumed): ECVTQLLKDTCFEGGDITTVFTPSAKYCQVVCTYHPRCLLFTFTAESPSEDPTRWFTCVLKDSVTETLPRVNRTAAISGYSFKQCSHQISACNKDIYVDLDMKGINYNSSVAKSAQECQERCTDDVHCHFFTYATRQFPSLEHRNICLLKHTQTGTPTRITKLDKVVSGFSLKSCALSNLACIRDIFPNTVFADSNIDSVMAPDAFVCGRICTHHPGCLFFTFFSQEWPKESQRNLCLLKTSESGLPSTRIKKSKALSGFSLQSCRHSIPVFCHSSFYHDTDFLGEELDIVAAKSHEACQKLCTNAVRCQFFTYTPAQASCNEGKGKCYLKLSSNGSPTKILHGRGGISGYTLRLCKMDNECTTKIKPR

Q: What does the source list for `[2H]C([2H])([2H])n1ncc2c1-c1cccc(c1)[C@@H](n1cnc(-c3cc(Cl)ccc3-n3cc(Cl)nn3)cc1=O)CCC[C@@H](C)C(=O)N2` [Comparative compound 2, reference compound]?
A: IC50 [1]: 83.1 nM; IC50 [2]: 79.2 nM; IC50 [3]: 3.14 µM

Q: Which results are given for `[2H]C([2H])([2H])n1ncc2c1-c1cc(F)cc(c1)[C@@H](n1cnc(-c3cc(Cl)ccc3-n3cc(Cl)nn3)cc1=O)CCC[C@@H](C)C(=O)N2` [Comparative compound 3, reference compound]?
A: IC50 [1]: 110 nM; IC50 [2]: 103 nM; IC50 [3]: 2.15 µM

Q: With `[2H]C([2H])([2H])n1ncc2c1-c1cc(F)c(F)c(c1)[C@@H](n1cnc(-c3cc(Cl)ccc3-n3cc(Cl)nn3)cc1=O)CCC[C@@H](C)C(=O)N2` [Compound 1, (3S,7R)-3-(4-(5-chloro-2-(4-chloro-1H-1,2,3-triazol-1-yl)phenyl)-6-oxopyrimidin-1(6H)-yl)-2^4,2^5-difluoro-7-methyl-1^1-(methyl-d3)-1^1H-9-aza-1(5,4)-pyrazola-2(1,3)-benzenacyclononaphan-8-one] as the molecule, how does the IC50 [1] read?
A: 225 nM

Q: And the IC50 [2]?
A: 411 nM

Q: And the IC50 [3]?
A: 5.63 µM

Q: And the IC50 [4]?
A: 0.24 nM

Q: For `[2H]C([2H])([2H])n1ncc2c1-c1cc(F)c(F)c(c1)[C@@H](n1cnc(-c3c(-n4cc(C(F)(F)F)nn4)ccc(Cl)c3F)cc1=O)CCC[C@@H](C)C(=O)N2` [Compound 4, (3S,7R)-3-(4-(3-chloro-2-fluoro-6-(4-(trifluoromethyl)-1H-1,2,3-triazol-1-yl)phenyl)-6-oxopyrimidin-1(6H)-yl)-2^4,2^5-difluoro-7-methyl-1^1-(methyl-d3)-1^1H-9-aza-1(5 ,4)-pyrazola-2(1,3)-benzenacyclononaphan-8-one], which bioavailability [5] is on record?
A: 19%

Q: And the IC50 [1]?
A: 355 nM

Q: And the IC50 [2]?
A: 173 nM

Q: And the “Human Plasma APTT 1.5x” value [6]?
A: 0.20 µM

Q: What about the IC50 [4] of the same molecule?
A: 0.62 nM

Q: Which bioavailability [7] does the source give for `C[C@@H]1CCC[C@H](n2cnc(-c3cc(Cl)ccc3-n3cc(C(F)(F)F)nn3)cc2=O)c2cc(cc(F)c2F)-c2c(cnn2C(F)F)NC1=O` [Compound 12, (3R,7R)-3-(4-(5-chloro-2-(4-(trifluoromethyl)-1H-1,2,3-triazol-1-yl)phenyl) -6-oxopyrimidin-1(6H)-yl)-24,2^5-difluoro-7-methyl-1^1-difluoromethyl-1^1H-9-aza-1(5,4)-pyr azola-2(1,3)-benzenacyclononaphan-8-one] here?
A: 29.4%

Q: What about the “Human Plasma APTT 1.5x” value [6] of the same molecule?
A: 0.28 µM

Q: And the IC50 [4]?
A: 0.31 nM

Q: What does the source list for `[2H]C([2H])([2H])n1ncc2c1-c1cc(cc(F)c1F)[C@@H](n1cnc(-c3c(-n4cc(C(F)(F)F)nn4)ccc(Cl)c3F)cc1=O)CCC[C@@H](C)C(=O)N2` [Compound 16, (3S,7R)-3-(4-(3-chloro-2-fluoro-6-(4-(trifluoromethyl)-1H-1,2,3-triazol-1-yl)phenyl)-6-oxopyrimidin-1(6H)-yl)-2^52^6-difluoro-7-methyl-1^1-(methyl-d3)-1^1H-9-aza-1(5,4)-pyrazola-2(1,3)-benzenacyclononaphan-8-one]?
A: bioavailability [5]: 44.5%; IC50 [1]: 219 nM; IC50 [2]: 164 nM; Human Plasma APTT 1.5x [6]: 0.31 µM; IC50 [3]: 9.21 µM; IC50 [4]: 0.4 nM

Q: For `[2H]C([2H])([2H])n1ncc2c1-c1cc(cc(F)c1F)[C@@H](n1cnc(-c3cc(Cl)ccc3-n3cc(Cl)nn3)cc1=O)CCC[C@@H](C)C(=O)N2` [Compound 17, (3S,7R)-3-(4-(5-chloro-2-(4-chloro-1H-1,2,3-triazol-1-yl)phenyl)-6-oxopyrimidin-1(6H)-yl)-2^5,2^6-difluoro-7-methyl-1^1-(methyl-d3)-1^1H-9-aza-1(5,4)-pyrazola-2(1,3)-benzenacyclononaphan-8-one], which bioavailability [5] is on record?
A: 59.6%

Q: What about the IC50 [1] of the same molecule?
A: 322 nM

Q: And the IC50 [2]?
A: 390 nM

Q: What about the “Human Plasma APTT 1.5x” value [6] of the same molecule?
A: 0.04 µM

Q: And the IC50 [3]?
A: 6.92 µM

Q: And the IC50 [4]?
A: 0.36 nM

Q: With `[2H]C([2H])([2H])n1ncc2c1-c1cc(cc(F)c1F)[C@@H](n1cnc(-c3cc(Cl)ccc3-n3cc(C(F)(F)F)nn3)cc1=O)CCC[C@@H](C)C(=O)N2` [Compound 18, (3S,7R)-3-(4-(5-chloro-2-(4-(trifluoromethyl)-1H-1,2,3-triazol-1-yl)phenyl) -6-oxopyrimidin-1(6H)-yl)-2^5,2^6-difluoro-7-methyl-1^1-(methyl-d3)-1^1H-9-aza-1(5,4)-pyrazola-2(1,3)-benzenacyclononaphan-8-one] as the molecule, how does the bioavailability [5] read?
A: 21.9%

Q: And the IC50 [1]?
A: 627 nM

Q: And the IC50 [2]?
A: 223 nM

Q: What about the IC50 [3] of the same molecule?
A: 11.1 µM

From patent publication EP4737457A1, “POLYSUBSTITUTED MACROCYCLIC COMPOUND, AND PREPARATION METHOD THEREFOR AND USE THEREOF” (Shenzhen Salubris Pharmaceuticals Co., Ltd., priority 2023, dated 2025)
